Source: ChEMBL document CHEMBL1201862, “PubChem BioAssay data set” (2004)
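Exposure lasted 48 hours, with cells grown in 96-well plates and compounds tested at five concentrations. GI50 = concentration required for 50% inhibition of growth.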 Active and inactive are the calls of the source. Rule as the data show it: active = GI50 up to about 1.1 µM and inactive = higher.

Assays:
Test in all cases: inhibition of tumour cell growth, NCI panel, 48 h
Hs-578T = tested on: Hs-578T
T47D = tested on: T47D
MCF7 = tested on: MCF7
MOLT-4 = tested on: MOLT-4
RPMI-8226 = tested on: RPMI-8226
MDA-MB-435 = tested on: MDA-MB-435
NCI/ADR-RES = tested on: NCI/ADR-RES
SR = tested on: SR
DU-145 = tested on: DU-145
MDA-N = tested on: MDA-N
CAKI-1 = tested on: CAKI-1
NCI-H226 = tested on: NCI-H226
ACHN = tested on: ACHN
DLD-1 = tested on: DLD-1
XF498 = tested on: XF498
SNB-78 = tested on: SNB-78
KM-20L2 = tested on: KM-20L2
NCI-H522 = tested on: NCI-H522
MDA-MB-231 = tested on: MDA-MB-231
DMS-273 = tested on: DMS-273

Measured: GI50

Nc1nc(Cl)nc2c1ncn2C1CCC(CO)O1 (stereo not drawn)
inactive: Hs-578T > 100 µM | T47D > 100 µM | MCF7 > 100 µM | MOLT-4 35.2 µM | RPMI-8226 > 100 µM | MDA-MB-435 > 100 µM | NCI/ADR-RES 90.6 µM | SR > 100 µM | DU-145 > 100 µM | MDA-N > 100 µM | CAKI-1 > 100 µM | NCI-H226 > 100 µM

Nc1ccc2c(c1)C(=O)N(O)C2=O
inactive: ACHN > 100 µM | DLD-1 > 100 µM | XF498 > 100 µM | MOLT-4 > 100 µM | SR > 100 µM | SNB-78 > 100 µM | NCI-H226 > 100 µM | KM-20L2 > 100 µM

NC(Cc1ccc(OCc2ccccc2)cc1)C(=O)NC(Cc1ccccc1)C(=O)Oc1c(Cl)c(Cl)c(Cl)c(Cl)c1Cl (stereo not drawn)
inactive: ACHN 16.5 µM | Hs-578T 14 µM | T47D 17.9 µM | MCF7 19 µM | MOLT-4 39.2 µM | RPMI-8226 40.9 µM | MDA-MB-435 18.3 µM | NCI/ADR-RES 17.9 µM | NCI-H522 23.1 µM | MDA-MB-231 13 µM | SR 54.1 µM | DU-145 12.8 µM | MDA-N 12.7 µM | CAKI-1 16.7 µM | NCI-H226 13.2 µM

Cc1ccc2c(c1)C(=O)N(N(C)C)CC(=O)N2
inactive: ACHN > 100 µM | DLD-1 > 100 µM | XF498 > 100 µM | MOLT-4 > 100 µM | RPMI-8226 > 100 µM | DMS-273 > 100 µM | NCI-H522 > 100 µM | SR > 100 µM | SNB-78 > 100 µM | CAKI-1 > 100 µM | NCI-H226 > 100 µM

CN(C)CCCNC(=O)N/N=C/c1ccccn1
inactive: ACHN > 10 µM | Hs-578T > 10 µM | T47D > 10 µM | MCF7 > 10 µM | MOLT-4 > 10 µM | RPMI-8226 > 10 µM | NCI/ADR-RES > 10 µM | NCI-H522 > 10 µM | MDA-MB-231 > 10 µM | SR > 10 µM | DU-145 > 10 µM | MDA-N > 10 µM

CC(C)C[C@@H](NC(=O)[C@@H](Cc1cccc2ccccc12)NC(=O)N1CCOCC1)B(O)O
inactive: ACHN 66.1 µM | Hs-578T 40.5 µM | T47D 58.2 µM | MOLT-4 31.5 µM | RPMI-8226 32.5 µM | MDA-MB-435 20.8 µM | NCI/ADR-RES > 100 µM | MDA-MB-231 50.5 µM | SR 27 µM | DU-145 > 100 µM | MDA-N 20.7 µM | CAKI-1 72.8 µM | NCI-H226 18 µM

O=c1ccc2nc3cc(Br)ccc3sc-2c1
inactive: ACHN 57 µM | DLD-1 82.8 µM | MOLT-4 21.7 µM | DMS-273 > 100 µM | NCI-H522 56.8 µM | SR 33 µM | SNB-78 > 100 µM | CAKI-1 32.3 µM | NCI-H226 > 100 µM | KM-20L2 > 100 µM

c1ccc2c(c1)SP1Sc3ccccc3P21 (stereo not drawn)
inactive: DLD-1 > 92.5 µM | XF498 > 100 µM | MCF7 > 100 µM | MOLT-4 > 100 µM | RPMI-8226 59.6 µM | DMS-273 > 100 µM | NCI/ADR-RES > 100 µM | NCI-H522 39.6 µM | SNB-78 > 100 µM | NCI-H226 > 45.7 µM | KM-20L2 > 78 µM

COc1ccc(C2CC(c3c(O)ccc4ccccc34)=NN2)cc1OC (stereo not drawn)
inactive: ACHN 1.86 µM | Hs-578T 2.16 µM | T47D 4.04 µM | MCF7 6.37 µM | MOLT-4 2.24 µM | RPMI-8226 8 µM | MDA-MB-435 2.96 µM | NCI/ADR-RES 2.62 µM | NCI-H522 1.82 µM | MDA-MB-231 9.79 µM | DU-145 5.71 µM | MDA-N 3.95 µM | CAKI-1 4.9 µM | NCI-H226 2.54 µM

[O-][n+]1c2c([n+]([O-])c3ccccc31)-c1cccc3cccc-2c13
inactive: ACHN > 100 µM | Hs-578T 32.9 µM | T47D > 100 µM | MCF7 > 100 µM | MOLT-4 > 100 µM | MDA-MB-435 > 100 µM | NCI/ADR-RES > 100 µM | NCI-H522 65.9 µM | MDA-MB-231 33 µM | SR > 100 µM | DU-145 > 100 µM | MDA-N > 100 µM | NCI-H226 > 100 µM

COc1cc2c(cc1OC)CCN=C2
inactive: Hs-578T > 100 µM | T47D > 100 µM | MCF7 > 100 µM | MOLT-4 > 100 µM | RPMI-8226 > 100 µM | MDA-MB-435 > 100 µM | NCI/ADR-RES > 100 µM | MDA-MB-231 > 100 µM | SR > 100 µM | DU-145 > 100 µM | MDA-N > 100 µM | CAKI-1 > 100 µM | NCI-H226 > 100 µM

COC1CCC(O)C(CO)O1 (stereo not drawn)
inactive: ACHN > 100 µM | DLD-1 > 100 µM | XF498 > 100 µM | MOLT-4 27.6 µM | NCI-H522 13.4 µM | SR 45.3 µM | SNB-78 > 100 µM | KM-20L2 > 100 µM

CN(C)C(=O)OCOC(=O)N(C)C
inactive: DLD-1 > 100 µM | XF498 > 100 µM | MCF7 > 100 µM | MOLT-4 > 100 µM | RPMI-8226 > 100 µM | DMS-273 > 100 µM | NCI/ADR-RES > 100 µM | NCI-H522 > 100 µM | SNB-78 > 100 µM | CAKI-1 > 100 µM | NCI-H226 > 100 µM | KM-20L2 > 100 µM

CC1(C)OC2CC(=O)OCC23C1CC(=O)C1(C)C3CCC2(C)C(c3ccoc3)OC(=O)C3OC321 (stereo not drawn)
inactive: DLD-1 > 125 µM | XF498 > 125 µM | MCF7 > 70.3 µM | MOLT-4 > 125 µM | RPMI-8226 > 125 µM | DMS-273 > 125 µM | NCI/ADR-RES > 125 µM | NCI-H522 > 125 µM | SNB-78 > 125 µM | CAKI-1 16.1 µM | NCI-H226 > 125 µM | KM-20L2 > 125 µM

O=C(O)C12CCCC(CCC1)C2
inactive: ACHN > 100 µM | DLD-1 > 100 µM | XF498 > 100 µM | MOLT-4 > 100 µM | RPMI-8226 > 100 µM | DMS-273 > 100 µM | NCI-H522 > 100 µM | SNB-78 > 100 µM | CAKI-1 > 100 µM
